What was measured:
Assay type in all cases: functional
[1] = tested on: Human immunodeficiency virus 1; test: (§1) Antiviral activity against HIV1 K-2 harboring integrase D10E, R20K, I113V, A124T, K188R, V201I, T206S, N232D, D278G mutant gene infected in human TZM-bl cells assessed as beta-galactosidase expression after 48 hrs by microplate luminometry relative to HIV1 R7/3 expressing wild type integrase enzyme
[2] = tested on: Human immunodeficiency virus 1; test: as §1, with “R-31” for “K-2”, “E11D, V32I, V37I, V72I, L101I, T112I, A124N, T125A, K173R, A205S, Q216H, N222K, S230N, N232D” for “R20K, I113V, A124T, K188R, V201I, T206S, N232D, D278G”
[3] = tested on: Human immunodeficiency virus 1; test: Antiviral activity against HIV1 harboring integrase T97A mutant infected in human TZM-bl cells assessed as beta-galactosidase expression after 48 hrs by microplate luminometry relative to HIV1 R7/3 expressing wild type integrase enzyme relative to HIV1 R7/3 expressing wild type integrase enzyme
[4] = tested on: Human immunodeficiency virus 1; test: (§2) Antiviral activity against HIV1 B-27 harboring integrase D10E, R20K, S39C, V72I, A124N, T125M, V201I, N232D mutant gene infected in human TZM-bl cells assessed as beta-galactosidase expression after 48 hrs by microplate luminometry relative to HIV1 R7/3 expressing wild type integrase enzyme
[5] = tested on: Human immunodeficiency virus 1; test: (§3) Antiviral activity against HIV1 G-8 harboring integrase D10E, L101I, S119T, A124T, M154L, V201I, N232D, S283G mutant gene infected in human TZM-bl cells assessed as beta-galactosidase expression after 48 hrs by microplate luminometry relative to HIV1 R7/3 expressing wild type integrase enzyme
[6] = tested on: Human immunodeficiency virus 1; test: Antiviral activity against HIV1 harboring integrase N155H mutant infected in human TZM-bl cells assessed as beta-galactosidase expression after 48 hrs by microplate luminometry relative to HIV1 R7/3 expressing wild type integrase enzyme relative to HIV1 R7/3 expressing wild type integrase enzyme
[7] = tested on: Human immunodeficiency virus 1; test: as §3, with “F-15” for “G-8”, “K42T, A124N, T125A, V126L,” for “L101I, S119T, A124T,”, “V201I, T206S,” for “V201I,”, “V281S” for “S283G”
[8] = tested on: Human immunodeficiency virus 1; test: as §2, with “N-19” for “B-27”, “E11D, D25E, V31I, I113V, S119G,” for “R20K, S39C, V72I,”, “V151I,” for “T125M,”
[9] = tested on: Human immunodeficiency virus 1; test: Antiviral activity against HIV1 B-28 harboring integrase D10E, R20K, S39C, V72I, A124N, T125V, V201I, N232D mutant gene infected in human TZM-bl cells assessed as beta-galactosidase expression after 48 hrs by microplate luminometry relative to HIV1 R7/3 expressing wild type integrase enzyme
[10] = tested on: Human immunodeficiency virus 1; test: Antiviral activity against HIV1 G-4 harboring integrase K7R, D10E, S39C, L74I, K156R, K215N, T218I, N232D, L234I mutant gene infected in human TZM-bl cells assessed as beta-galactosidase expression after 48 hrs by microplate luminometry relative to HIV1 R7/3 expressing wild type integrase enzyme
[11] = tested on: Human immunodeficiency virus 1; test: Antiviral activity against HIV1 R-6 harboring integrase D10E, E11D, S17N, A23V, L28I, P30A, V72I, L101I, S119T, T122I, A124T, V201I, N222D, N232D, S230G, D253E, N254G mutant gene infected in human TZM-bl cells assessed as beta-galactosidase expression after 48 hrs by microplate luminometry relative to HIV1 R7/3 expressing wild type integrase enzyme
[12] = tested on: Human immunodeficiency virus 1; test: Antiviral activity against HIV1 A-6 harboring integrase D10E, V72I, A124T, M154I, R199K, V201I, N232D mutant gene infected in human TZM-bl cells assessed as beta-galactosidase expression after 48 hrs by microplate luminometry relative to HIV1 R7/3 expressing wild type integrase enzyme

| Structure (SMILES) | Ratio EC50 [1] | Ratio EC50 [2] | Ratio EC50 [3] | Ratio EC50 [4] | Ratio EC50 [5] | Ratio EC50 [6] | Ratio EC50 [7] | Ratio EC50 [8] | Ratio EC50 [9] | Ratio EC50 [10] | Ratio EC50 [11] | Ratio EC50 [12] |
| --- | --- | --- | --- | --- | --- | --- | --- | --- | --- | --- | --- | --- |
| O=C(NCc1ccc(F)cc1)c1nc(N2CCCCS2(=O)=O)c2cccnc2c1O | 0.468 | 1.268 | 6.067 | 1.306 | 0.488 | 12.647 | 0.505 | 1.416 | 0.973 | 1.3 | 1.175 | 0.863 |
| CN(C)C(=O)C(=O)N(C)c1nc(C(=O)NCc2ccc(F)cc2)c(O)c2ncccc12 | 0.461 | 1.589 | 3.767 | 0.966 | 0.515 | 2.692 | 0.33 | 0.927 | 0.673 | 0.643 | 0.412 | 0.836 |
| CN(C)C(=O)C(=O)NC(C)(C)c1nc(C(=O)NCc2ccc(F)cc2)c(O)c(=O)n1C | 0.394 | 1.005 | 2 | 0.592 | 0.286 | 0.78 | 0.329 | 0.998 | 0.766 | 0.847 | 0.644 | 0.946 |
| CNC(=O)c1cc(F)ccc1CNC(=O)c1nc(N2CCCCS2(=O)=O)c2cccnc2c1O | 0.448 | 0.995 | 0.865 | 0.627 | 0.425 | 4.295 | 0.656 | 0.456 | 0.767 | 0.565 | 1.067 | 0.5 |

Reference: ChEMBL document CHEMBL1649238, “Natural polymorphisms of human immunodeficiency virus type 1 integrase and inherent susceptibilities to a panel of integrase inhibitors” (2009)
